# Source: patent US9833497B2, “Human originated EGF domain proteins and use of the same” (CHENGDU SOURCEBIO LIMITED-LIABILITY COMPANY, priority 2013, dated 2017)
# Key:
# Type in all cases: cell-based
# Aeromonas hydrophila = assay: MIC against Gram-negative bacteria: Aeromonas hydrophila; conditions: 5×10^5 CFU/mL; for MIC against A. hydrophila: Aeromonas hydrophila
# Summary of the method: (§1)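 Bacteria grown in LB at 37° C to McFarland 0.5, resuspended and seeded at 5×10^5 CFU/mL in 96-well plates. Purified human EGF-domain proteins two-fold serially diluted, triplicate wells; cultured at 37° C, shaking 175 rpm. MIC = lowest protein concentration with no growth.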
# Moraxella catarrhalis = assay: MIC against Gram-negative bacteria: Moraxella catarrhalis; conditions: 5×10^5 CFU/mL; for MIC against M. catarrhalis: Moraxella catarrhalis
# Summary of the method: as §1
# Pseudomonas aeruginosa = assay: MIC against Gram-negative bacteria: Pseudomonas aeruginosa; conditions: 5×10^5 CFU/mL; for MIC against P. aeruginosa: Pseudomonas aeruginosa
# Summary of the method: as §1
# Serratia marcescens = assay: MIC against Gram-negative bacteria: Serratia marcescens; conditions: 5×10^5 CFU/mL; for MIC against S. marcescens: Serratia marcescens
# Summary of the method: as §1
# Klebsiella pneumonia = assay: MIC against Gram-negative bacteria: Klebsiella pneumonia; conditions: 5×10^5 CFU/mL; for MIC against K. pneumonia: Klebsiella pneumonia
# Summary of the method: as §1
# E. coli DH5α = assay: Antibacterial activity: MIC and growth curve against E. coli DH5α in 96-well plate; conditions: minimal inhibitory concentration against E. coli DH5α; 96-well plate, 5×10^5 CFU/mL, 37° C., judged after 8 h
# Summary of the method: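 Log-phase DH5α (OD600 about 0.5, 37° C, 185 rpm in LB) was pelleted, resuspended in fresh LB and seeded at 5×10^5 CFU/mL with recombinant protein at 50, 25 and 12.5 μg/mL (two-fold series), in triplicate. Plates were shaken at 175 rpm, 37° C, and OD600 was read every 30 min. MIC was the lowest concentration with no growth.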
# Proteus vulgaris = assay: MIC against Gram-negative bacteria: Proteus vulgaris; conditions: 5×10^5 CFU/mL; for MIC against P. vulgaris: Proteus vulgaris
# Summary of the method: as §1
# Citrobacter diversus = assay: MIC against Gram-negative bacteria: Citrobacter diversus; conditions: 5×10^5 CFU/mL; for MIC against C. diversus: Citrobacter diversus
# Summary of the method: as §1
# Enterobacter cloacae = assay: MIC against Gram-negative bacteria: Enterobacter cloacae; conditions: 5×10^5 CFU/mL; for MIC against E. cloacae: Enterobacter cloacae
# Summary of the method: as §1
# Proteus mirabilis = assay: MIC against Gram-negative bacteria: Proteus mirabilis; conditions: 5×10^5 CFU/mL; for MIC against P. mirabilis: Proteus mirabilis
# Summary of the method: as §1
# E. coli BL21 = assay: MIC against Gram-negative bacteria: E. coli BL21; conditions: 5×10^5 CFU/mL
# Summary of the method: as §1
# [1] = E. coli BL21, 10 h cultivation at 37° C.
# [2] = 10 h cultivation at 37° C., two-fold serial dilution
substance,measurement,setting,value
PRT1289 (LAEPCRGLQCLHGHCQASGTKGAHCVCDPGFSGELCE; listed as Homo sapiens),MIC against A. hydrophila,"Aeromonas hydrophila; 96-well plate, 37° C., 10 h",12.5 µg/mL
same,MIC against M. catarrhalis,"Moraxella catarrhalis; 96-well plate, 37° C., 10 h",50 µg/mL
same,MIC against P. aeruginosa,"Pseudomonas aeruginosa; 96-well plate, 37° C., 10 h",12.5 µg/mL
same,MIC against S. marcescens,"Serratia marcescens; 96-well plate, 37° C., 10 h",25 µg/mL
same,MIC against K. pneumonia,"Klebsiella pneumonia; 96-well plate, 37° C., 10 h",12.5 µg/mL
same,MIC,E. coli DH5α,12.5 µg/mL
same,MIC against P. vulgaris,"Proteus vulgaris; 96-well plate, 37° C., 10 h",50 µg/mL
same,MIC against C. diversus,"Citrobacter diversus; 96-well plate, 37° C., 10 h",12.5 µg/mL
same,MIC against E. cloacae,"Enterobacter cloacae; 96-well plate, 37° C., 10 h",25 µg/mL
same,MIC against P. mirabilis,"Proteus mirabilis; 96-well plate, 37° C., 10 h",12.5 µg/mL
same,MIC against E. coli BL21,"E. coli BL21; E. coli BL21, 96-well plate, 37° C., 10 h",12.5 µg/mL
PRT767 (AIDLCAEGTHGCEHHCVNSPGSYFCHCQVGFVLQQDQ; listed as Homo sapiens),MIC (μg/mL) A. hydrophila,"Aeromonas hydrophila; A. hydrophila, 10 h cultivation at 37° C.",12.5 µg/mL
same,MIC (μg/mL) M. catarrhalis,"Moraxella catarrhalis; M. catarrhalis, 10 h cultivation at 37° C.",50 µg/mL
same,MIC (μg/mL) P. aeruginosa,"Pseudomonas aeruginosa; P. aeruginosa, 10 h cultivation at 37° C.",25 µg/mL
same,MIC (μg/mL) S. marcescens,"Serratia marcescens; S. marcescens, 10 h cultivation at 37° C.",50 µg/mL
same,MIC (μg/mL) K. pneumonia,"Klebsiella pneumonia; K. pneumonia, 10 h cultivation at 37° C.",12.5 µg/mL
same,MIC,E. coli DH5α,25 µg/mL
same,MIC (μg/mL) P. vulgaris,"Proteus vulgaris; P. vulgaris, 10 h cultivation at 37° C.",12.5 µg/mL
same,MIC (μg/mL) C. diversus,"Citrobacter diversus; C. diversus, 10 h cultivation at 37° C.",25 µg/mL
same,MIC (μg/mL) E. cloacae,"Enterobacter cloacae; E. cloacae, 10 h cultivation at 37° C.",50 µg/mL
same,MIC (μg/mL) P. mirabilis,"Proteus mirabilis; P. mirabilis, 10 h cultivation at 37° C.",25 µg/mL
same,MIC (μg/mL) E. coli BL21,E. coli BL21; [1],50 µg/mL
PRT1405 (PTTQCIDPQCGGRGICIMGSCACNSGYKGESCE; listed as Homo sapiens),MIC against A. hydrophila,Aeromonas hydrophila; 10 h cultivation at 37° C.,12.5 µg/mL
same,MIC against M. catarrhalis,Moraxella catarrhalis; 10 h cultivation at 37° C.,12.5 µg/mL
same,MIC against P. aeruginosa,Pseudomonas aeruginosa; 10 h cultivation at 37° C.,12.5 µg/mL
same,MIC against S. marcescens,Serratia marcescens; 10 h cultivation at 37° C.,12.5 µg/mL
same,MIC against K. pneumonia,Klebsiella pneumonia; 10 h cultivation at 37° C.,12.5 µg/mL
same,MIC,E. coli DH5α,12.5 µg/mL
same,MIC against P. vulgaris,Proteus vulgaris; 10 h cultivation at 37° C.,50 µg/mL
same,MIC against C. diversus,Citrobacter diversus; 10 h cultivation at 37° C.,12.5 µg/mL
same,MIC against E. cloacae,Enterobacter cloacae; 10 h cultivation at 37° C.,12.5 µg/mL
same,MIC against P. mirabilis,Proteus mirabilis; 10 h cultivation at 37° C.,12.5 µg/mL
same,MIC against E. coli BL21,E. coli BL21; [1],12.5 µg/mL
PRT627 (CTCNPAGSLDTCDPRSGRCPCKENVEGNLCDRCRPGTFNLQPHNPAGCSS; listed as Homo sapiens),MIC A. hydrophila,"Aeromonas hydrophila; 96-well plate, 37° C., 10 h",12.5 µg/mL
same,MIC M. catarrhalis,"Moraxella catarrhalis; 96-well plate, 37° C., 10 h",12.5 µg/mL
same,MIC P. aeruginosa,"Pseudomonas aeruginosa; 96-well plate, 37° C., 10 h",12.5 µg/mL
same,MIC S. marcescens,"Serratia marcescens; 96-well plate, 37° C., 10 h",50 µg/mL
same,MIC K. pneumonia,"Klebsiella pneumonia; 96-well plate, 37° C., 10 h",12.5 µg/mL
same,MIC,E. coli DH5α,12.5 µg/mL
same,MIC P. vulgaris,"Proteus vulgaris; 96-well plate, 37° C., 10 h",12.5 µg/mL
same,MIC C. diversus,"Citrobacter diversus; 96-well plate, 37° C., 10 h",12.5 µg/mL
same,MIC E. cloacae,"Enterobacter cloacae; 96-well plate, 37° C., 10 h",12.5 µg/mL
same,MIC P. mirabilis,"Proteus mirabilis; 96-well plate, 37° C., 10 h",50 µg/mL
same,MIC E. coli BL21,"E. coli BL21; 96-well plate, 37° C., 10 h",25 µg/mL
PRT1179 (DIDECASNPCLNGGHCQNEINRFQCLCPTGFSGNLCQ; listed as Homo sapiens),MIC A. hydrophila,Aeromonas hydrophila; [2],25 µg/mL
same,MIC M. catarrhalis,Moraxella catarrhalis; [2],25 µg/mL
same,MIC P. aeruginosa,Pseudomonas aeruginosa; [2],25 µg/mL
same,MIC S. marcescens,Serratia marcescens; [2],12.5 µg/mL
same,MIC K. pneumonia,Klebsiella pneumonia; [2],12.5 µg/mL
same,MIC,E. coli DH5α,12.5 µg/mL
same,MIC P. vulgaris,Proteus vulgaris; [2],25 µg/mL
same,MIC C. diversus,Citrobacter diversus; [2],12.5 µg/mL
same,MIC E. cloacae,Enterobacter cloacae; [2],50 µg/mL
same,MIC P. mirabilis,Proteus mirabilis; [2],50 µg/mL
same,MIC E. coli BL21,E. coli BL21; [2],50 µg/mL
